Measurements taken from ChEMBL document CHEMBL3885881, “DrugMatrix”.

Species on record: Rattus norvegicus
Assay: DrugMatrix - Regimen: Daily Repeat
Assay type: toxicity, organism-based, Sprague-Dawley
Design: regimen Daily Repeat, gender Male, age 6-8 weeks
Details: in vivo, po, route oral GAVAGE, vehicle .5 % CMC; for ABSOLUTE BASOPHIL / ABSOLUTE EOSINOPHIL / ABSOLUTE LYMPHOCYTE / ABSOLUTE MONOCYTE / ABSOLUTE SEGMENTED NEUTROPHIL / BASOPHIL / EOSINOPHIL / ERYTHROCYTE COUNT / HEMATOCRIT / HEMOGLOBIN / LEUKOCYTE COUNT / LYMPHOCYTE / MEAN CORPUSCULAR HEMOGLOBIN / MEAN CORPUSCULAR HEMOGLOBIN CONCENTRATION / MEAN CORPUSCULAR VOLUME / MONOCYTE / NEUTROPHIL / NUCLEATED RED BLOOD CELLS / PLATELET COUNT: tissue Blood; for ALANINE AMINOTRANSFERASE / ALBUMIN / ALKALINE PHOSPHATASE / ASPARTATE AMINOTRANSFERASE / BLOOD UREA NITROGEN / CARBON DIOXIDE / CHLORIDE / CHOLESTEROL / CREATINE PHOSPHOKINASE / CREATININE / GLUCOSE / LACTATE DEHYDROGENASE / LIPASE / PHOSPHORUS / POTASSIUM / SODIUM / TOTAL BILIRUBIN / TOTAL PROTEIN / URIC ACID: tissue Plasma
[1] = 385.5 mg/kg, 120 h, dose level Low, time 5 day
[2] = 3855 mg/kg, 72 h, dose level High, time 3 day
[3] = 3855 mg/kg, 120 h, dose level High, time 5 day

Cn1c(=O)c2c(ncn2CC(O)CO)n(C)c1=O (centres undefined) [DYPHYLLINE]
ABSOLUTE BASOPHIL [1]: 0 CELLS/uL | ABSOLUTE EOSINOPHIL [1]: 0 CELLS/uL | ABSOLUTE LYMPHOCYTE [1]: 14849.33 CELLS/uL | ABSOLUTE MONOCYTE [1]: 268.33 CELLS/uL | ABSOLUTE SEGMENTED NEUTROPHIL [1]: 1249 CELLS/uL | BASOPHIL [1]: 0% | EOSINOPHIL [1]: 0% | ERYTHROCYTE COUNT [1]: 5.2 x10E6/uL | HEMATOCRIT [1]: 34.47% | HEMOGLOBIN [1]: 13.7 G/DL | LEUKOCYTE COUNT [1]: 16.37 x10E3/uL | LYMPHOCYTE [1]: 90.67% | MEAN CORPUSCULAR HEMOGLOBIN [1]: 26.37 pg | MEAN CORPUSCULAR HEMOGLOBIN CONCENTRATION [1]: 39.77 G/DL | MEAN CORPUSCULAR VOLUME [1]: 66.3 fL | MONOCYTE [1]: 1.67% | NEUTROPHIL [1]: 7.67% | NUCLEATED RED BLOOD CELLS [1]: 0.33 /100WBC | PLATELET COUNT [1]: 1326 x10E3/uL | ALANINE AMINOTRANSFERASE [1]: 46.67 u/L | ALBUMIN [1]: 4.3 G/DL | ALKALINE PHOSPHATASE [1]: 287 u/L | ASPARTATE AMINOTRANSFERASE [1]: 70.67 u/L | BLOOD UREA NITROGEN [1]: 18.67 mg/dL | CARBON DIOXIDE [1]: 25.33 mmol/L | CHLORIDE [1]: 102.67 MEQ/L | CHOLESTEROL [1]: 75.33 mg/dL | CREATINE PHOSPHOKINASE [1]: 172.67 u/L | CREATININE [1]: 0.18 mg/dL | GLUCOSE [1]: 155 mg/dL | LACTATE DEHYDROGENASE [1]: 103.33 u/L | LIPASE [1]: 10 u/L | PHOSPHORUS [1]: 13.33 mg/dL | POTASSIUM [1]: 6.61 MEQ/L | SODIUM [1]: 146.27 MEQ/L | TOTAL BILIRUBIN [1]: 0.2 mg/dL | TOTAL PROTEIN [1]: 5.93 G/DL | URIC ACID [1]: 1.33 mg/dL | ABSOLUTE BASOPHIL [2]: 0 CELLS/uL | ABSOLUTE EOSINOPHIL [2]: 0 CELLS/uL | ABSOLUTE LYMPHOCYTE [2]: 16214.67 CELLS/uL | ABSOLUTE MONOCYTE [2]: 399.33 CELLS/uL | ABSOLUTE SEGMENTED NEUTROPHIL [2]: 2086 CELLS/uL | BASOPHIL [2]: 0% | EOSINOPHIL [2]: 0% | ERYTHROCYTE COUNT [2]: 5.33 x10E6/uL | HEMATOCRIT [2]: 33.37% | HEMOGLOBIN [2]: 13.57 G/DL | LEUKOCYTE COUNT [2]: 18.7 x10E3/uL | LYMPHOCYTE [2]: 87% | MEAN CORPUSCULAR HEMOGLOBIN [2]: 25.5 pg | MEAN CORPUSCULAR HEMOGLOBIN CONCENTRATION [2]: 40.67 G/DL | MEAN CORPUSCULAR VOLUME [2]: 62.63 fL | MONOCYTE [2]: 2% | NEUTROPHIL [2]: 11% | NUCLEATED RED BLOOD CELLS [2]: 0 /100WBC | PLATELET COUNT [2]: 1235.67 x10E3/uL | ALANINE AMINOTRANSFERASE [2]: 63.67 u/L | ALBUMIN [2]: 4.37 G/DL | ALKALINE PHOSPHATASE [2]: 376 u/L | ASPARTATE AMINOTRANSFERASE [2]: 102 u/L | BLOOD UREA NITROGEN [2]: 14 mg/dL | CARBON DIOXIDE [2]: 25.67 mmol/L | CHLORIDE [2]: 103.33 MEQ/L | CHOLESTEROL [2]: 72 mg/dL | CREATINE PHOSPHOKINASE [2]: 224.33 u/L | CREATININE [2]: 0.18 mg/dL | GLUCOSE [2]: 169.33 mg/dL | LACTATE DEHYDROGENASE [2]: 157.67 u/L | LIPASE [2]: 10 u/L | PHOSPHORUS [2]: 11.3 mg/dL | POTASSIUM [2]: 6.13 MEQ/L | SODIUM [2]: 145.4 MEQ/L | TOTAL BILIRUBIN [2]: 0.17 mg/dL | TOTAL PROTEIN [2]: 5.77 G/DL | URIC ACID [2]: 1.27 mg/dL | ABSOLUTE BASOPHIL [3]: 0 CELLS/uL | ABSOLUTE EOSINOPHIL [3]: 169.33 CELLS/uL | ABSOLUTE LYMPHOCYTE [3]: 15268 CELLS/uL | ABSOLUTE MONOCYTE [3]: 115.33 CELLS/uL | ABSOLUTE SEGMENTED NEUTROPHIL [3]: 1780.67 CELLS/uL | BASOPHIL [3]: 0% | EOSINOPHIL [3]: 1% | ERYTHROCYTE COUNT [3]: 5.34 x10E6/uL | HEMATOCRIT [3]: 34.57% | HEMOGLOBIN [3]: 13.7 G/DL | LEUKOCYTE COUNT [3]: 17.33 x10E3/uL | LYMPHOCYTE [3]: 88% | MEAN CORPUSCULAR HEMOGLOBIN [3]: 25.67 pg | MEAN CORPUSCULAR HEMOGLOBIN CONCENTRATION [3]: 39.63 G/DL | MEAN CORPUSCULAR VOLUME [3]: 64.77 fL | MONOCYTE [3]: 0.67% | NEUTROPHIL [3]: 10.33% | NUCLEATED RED BLOOD CELLS [3]: 0.33 /100WBC | PLATELET COUNT [3]: 1356 x10E3/uL | ALANINE AMINOTRANSFERASE [3]: 67.33 u/L | ALBUMIN [3]: 4.23 G/DL | ALKALINE PHOSPHATASE [3]: 246 u/L | ASPARTATE AMINOTRANSFERASE [3]: 85.67 u/L | BLOOD UREA NITROGEN [3]: 17 mg/dL | CARBON DIOXIDE [3]: 26.33 mmol/L | CHLORIDE [3]: 102.33 MEQ/L | CHOLESTEROL [3]: 58.67 mg/dL | CREATINE PHOSPHOKINASE [3]: 184.33 u/L | CREATININE [3]: 0.16 mg/dL | GLUCOSE [3]: 150.67 mg/dL | LACTATE DEHYDROGENASE [3]: 98.67 u/L | LIPASE [3]: 10 u/L | PHOSPHORUS [3]: 11.47 mg/dL | POTASSIUM [3]: 6.42 MEQ/L | SODIUM [3]: 144.77 MEQ/L | TOTAL BILIRUBIN [3]: 0.2 mg/dL | TOTAL PROTEIN [3]: 5.77 G/DL | URIC ACID [3]: 1 mg/dL
